Assay results published in article PMC9127750, “Structure-based design of CDC42 effector interaction inhibitors for the treatment of cancer” (Cell reports, 2022).
Several values for one entry are separate records, joined by “and”; a condition that tells them apart may be missing. Equal values may be shown once.

Tested on: WM3248 melanoma cells, 486 antibodies
Assay: Reverse phase protein arrays (RPPA)
Format: cell-based, Human
Text: Pellets were snap frozen in liquid nitrogen and shipped to MD Anderson Cancer Center core RPPA facility for RPPA analysis (Table S5). Three biological replicates for each sample were generated.
Nomenclatures on the RPPA heatmaps: name_of_antibody.species_of_antibody.status_of_antibody. V - antibody validated; C - validation of antibody in progress; Q - antibody nonspecific; E – under evaluation; antibodies raised in M - mouse, G - goat, R - rabbit, or T - rat.

## CN(C)c1cccc(Nc2cc(-c3ccccc3)nc(C3CCNCC3)n2)c1 [ARN22089, N1,N1-dimethyl-N3-(6-phenyl-2-(piperidin-4-yl)pyrimidin-4-yl)benzene-1,3-diamine]
Level 20 vs 0
  Merlin.R.C Norm_20 Average: 1.326
  Midkine.R.V Norm_20 Average: 0.903
  Mitofusin.1.R.V Norm_20 Average: 0.924
  Mitofusin.2.R.V Norm_20 Average: 0.929
  Mnk1.R.V Norm_20 Average: 0.909
  mTOR.R.V Norm_20 Average: 0.966
  mTOR_pS2448.R.C Norm_20 Average: 0.981
Level 20 vs 0, replicates
  HLA.DQA1.R.V Norm_20: 0.920
  HLA.DR.DP.DQ.DX.R.C Norm_20: 1.294 and 1.162
  HMHA1.R.V Norm_20: 0.981 and 0.880 and 1.188
  HNRNPK.R.V Norm_20: 0.984 and 1.119 and 0.871
  HSP27.M.C Norm_20: 0.670 and 0.856 and 0.906
  HSP27_pS82.R.V Norm_20: 0.842 and 0.885 and 1.155
  HSP60.R.V Norm_20: 1.130 and 0.832 and 1.026
  HSP70.R.C Norm_20: 1.062 and 1.459
  Hexokinase.I.R.C Norm_20: 1.110 and 1.189 and 1.305
  Hexokinase.II.R.V Norm_20: 1.291 and 0.878 and 1.104
  Hif.1αR.C Norm_20: 1.195 and 0.879 and 1.078
  Histone.H3.R.V Norm_20: 1.827 and 15.369 and 0.615
  Histone.H3_pS10.R.V Norm_20: 1.077 and 5.500 and 0.823
  IDO.R.C Norm_20: 0.970 and 0.836
  IGF1R_pY1135_Y1136.R.V Norm_20: 1.013 and 0.925
  IGFBP2.R.V Norm_20: 1.100 and 0.958 and 1.153
  IGFBP3.M.V Norm_20: 0.795 and 0.982
  IGFRb.R.C Norm_20: 1.223 and 1.234
  IL.6.R.C Norm_20: 0.955 (2×) and 1.003
  IMP3.R.C Norm_20: 0.919 and 1.030 and 0.952
  INPP4b.R.C Norm_20: 0.903 and 0.986
  IR.b.R.C Norm_20: 1.018 and 0.967 and 1.220
  IRF.1.R.V Norm_20: 0.991 and 0.831 and 1.052
  IRF.3.R.V Norm_20: 0.860 and 0.878 and 0.910
  IRS1.R.V Norm_20: 1.064 and 1.027 and 1.060
  IRS2.R.C Norm_20: 1.529 and 1.065
  JAB1.M.C Norm_20: 0.904 and 0.945 and 1.061
  JNK2.R.V Norm_20: 0.750 and 1.506
  JNK_pT183_Y185.R.C Norm_20: 1.059 and 0.941 and 1.008
  Jagged1.R.V Norm_20: 1.035 and 0.964 and 1.085
  Jak2.R.V Norm_20: 1.132 and 0.972 and 1.009
  KAP1.R.V Norm_20: 1.259 and 0.970 and 1.549
  KEAP1.R.V Norm_20: 1.169 and 0.932 and 0.897
  LAD1.R.V Norm_20: 0.881 and 0.761 and 1.249
  LC3A.B.R.C Norm_20: 1.429 and 1.134 and 1.161
  LCN2.R.V Norm_20: 2.531 and 1.008 and 1.326
  LDHA.R.C Norm_20: 0.857 and 1.499 and 2.319
  LRP6_pS1490.R.V Norm_20: 1.001
  Lasu1.R.V Norm_20: 1.199 and 1.294
  Lck.R.V Norm_20: 1.370 and 1.163 and 1.379
  Lyn.R.V Norm_20: 0.892 and 1.140 and 1.052
  MACC1.R.V Norm_20: 0.920 and 0.933
  MAPK_pT202_Y204.R.C Norm_20: 0.833 and 0.402 and 0.466
  MCT4.R.V Norm_20: 1.030 and 0.799 and 1.149
  MDM2_pS166.R.V Norm_20: 1.426 and 1.478 and 1.290
  MEK1.R.V Norm_20: 1.117 and 2.580
  MEK1_pS217_S221.R.V Norm_20: 0.743 and 0.841 and 1.347
  MEK2.R.V Norm_20: 0.956 and 1.186
  MERIT40.R.C Norm_20: 0.841 and 0.749 and 1.150
  MERIT40_pS29.R.V Norm_20: 0.968 and 0.879 and 1.231
  METTL3.R.V Norm_20: 1.164 and 1.324 and 1.250
  MIF.R.C Norm_20: 0.869 and 0.900 and 0.906
  MIG6.R.V Norm_20: 0.893 and 0.926 and 0.901
  MITF.R.V Norm_20: 1.001 and 1.191 and 1.081
  MLH1.M.V Norm_20: 0.708 and 0.840 and 1.119
  MLKL.R.V Norm_20: 0.758 and 0.733
  MMP2.R.V Norm_20: 0.895 and 0.974 and 0.934
  MMP14.R.V Norm_20: 1.924 and 1.667 and 1.374
  MR1.M.C Norm_20: 0.871 and 1.118 and 0.973
  MRAP.R.C Norm_20: 1.035 and 1.214 and 1.082
  MSH2.R.C Norm_20: 0.839 and 0.919 and 1.059
  MSH6.R.C Norm_20: 1.343 and 1.387 and 1.258
  MSI2.R.C Norm_20: 1.362 and 1.019
  MTCO1.M.V Norm_20: 1.305 and 0.956 and 1.145
  MTSS1.M.C Norm_20: 0.841 and 1.006 and 0.964
  Mcl.1.R.V Norm_20: 0.748 and 0.609 and 0.905
  MelanA.R.C Norm_20: 1.030 and 0.993 and 1.051
  Melanoma.gp100.R.C Norm_20: 1.080 and 0.890
  Merlin.R.C Norm_20: 1.344 and 1.329 and 1.306
  Midkine.R.V Norm_20: 0.858 and 0.901
  Mitofusin.1.R.V Norm_20: 0.931 and 0.783 and 1.058
  Mitofusin.2.R.V Norm_20: 0.808 and 0.772 and 1.206
  Mnk1.R.V Norm_20: 0.936 and 0.820 and 0.972
  mTOR.R.V Norm_20: 0.878 and 0.940 and 1.079
  mTOR_pS2448.R.C Norm_20: 0.856 and 0.896 and 1.190
